According to patent EP2790511B1 (Merck Sharp & Dohme Corp., priority 2011, dated 2013):

Target: T1, hROMK (hKir1.1) (Homo sapiens, UniProt P48048)
T1 construct: expressed in transfected cells
T1 sequence (P48048 1-391): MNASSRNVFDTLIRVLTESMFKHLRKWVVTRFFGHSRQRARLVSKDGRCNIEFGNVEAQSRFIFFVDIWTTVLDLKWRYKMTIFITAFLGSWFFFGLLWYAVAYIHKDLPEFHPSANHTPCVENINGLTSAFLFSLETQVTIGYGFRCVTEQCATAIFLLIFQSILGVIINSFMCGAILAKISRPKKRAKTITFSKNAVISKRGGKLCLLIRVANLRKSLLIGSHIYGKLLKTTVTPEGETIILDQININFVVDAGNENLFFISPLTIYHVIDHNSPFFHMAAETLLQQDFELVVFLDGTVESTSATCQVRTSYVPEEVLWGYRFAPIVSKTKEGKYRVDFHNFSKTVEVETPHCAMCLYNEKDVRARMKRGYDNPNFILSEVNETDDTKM
Test: Thallium Flux Assay
Assay type: cell-based
Conditions: HEK293 cells stably expressing hROMK (hKir1.1), FLIPR-Tetra; read-out: Thallium Flux IC50
Protocol: Cell Culture Conditions- HEK293 cells stably expressing hROMK (hKir1.1) were grown at 37°C in a 10%CO2 humidified incubator in complete growth media: Dulbecco's Modified Eagle Medium supplemented with non-essential amino acids, Penicillin/Streptomycin/Glutamine, G418 and FBS. At >80% confluency, aspirate the media from the flask and rinse with 10 mL Calcium/Magnesium-free PBS. […] To dislodge the cell, gently bang the side of the flask with your hand. Triturate the cells completely and then transfer the cells to 25 mL complete media. Centrifuge at 1,500 rpm for 6 min followed by resuspension in complete growth media and determine cell concentration. […] Under ideal growth conditions and appropriate tissue culture practices, this cell line is stable for 40-45 passages.
• FluxOR™ Reagent (Component A) • FluxOR™ Assay Buffer (Component B) - 10X Concentrate • PowerLoad™ Concentrate (Component C) - 100X Concentrate • Probenecid (Component D) - Lyophilized sample is kept at -20°C. Water soluble, 100X after solubilization in 1 mL water. […] Store at 4°C. • Thallium sulfate (Tl2SO4) Concentrate (Component G) - 50 mM in water. Store at 4°C • DMSO (dimethyl sulfoxide, Component H) - 1 mL (100%)
• 1000X FluxOR™ Reagent: Reconstitute a vial of component A in 100 µl DMSO; Mix well; Store 10 µl aliquots at -20°C • 1X FluxOR™ Assay Buffer: Dilute Component B 10-fold with water; Adjust pH to 7.4 with Hepes/NaOH; Filter and store at 4°C • Probenecid/Assay Buffer: 100 mL of 1X FluxOR™ Assay Buffer; 1 mL of reconstituted component D; Store at 4°C • Loading Buffer (per microplate): 10 µl 1000X FluxOR™ Reagent; 100 µl component C; 10 mL Probenecid/Assay Buffer • Compound Buffer (per microplate): 20 mL Probenecid/Assay Buffer; 0.3 mM ouabain (10 mM ouabain in water can be stored in amber bottle/aluminum foil at room temperature); Test compound • 1X FluxOR™Chloride-Free Buffer: Prepare 1X working solution in water. Can be stored at room temperature • Stimulant Buffer (prepared at 5X final concentration in 1X FluxOR™Chloride-Free Buffer): 7.5 mM Thallium sulfate and 0.75 mM Potassium sulfate (to give a final assay concentration of 3 mM Thallium/ 0.3 mM Potassium). Store at 4°C when not in use. If kept sterile, this solution is good for months.
Assay protocol- The ROMK channel functional thallium flux assay is performed in 384 wells, using the FLIPR-Tetra instrument. HEK-hKir1.1 cells are seeded in Poly-D-Lysine microplates and kept in a 37°C-10%CO2 incubator overnight. On the day of the experiment, the growth media is replaced with the FluxOR™ reagent loading buffer and incubated, protected from light, at ambient temperature (23-25°C) for 90 min. The loading buffer is replaced with assay buffer ± test compound followed by 30 min incubation at ambient temperature, where the Thallium/Potassium stimulant is added to the microplate.
• 1. Seed HEK-hKir1.1 cells (50 µl at 20,000 cells/well) in 384-well PDL coated Microplates • 2. Allow cells to adhere overnight in humidified 37°C/10%CO2 incubator • 3. Completely remove cell growth media from microplate and replace with 25 µl loading buffer • 4. Incubate Microplate at room temperature, protected form light, for 90 min • 5. Remove loading buffer and replace with 25 µl 1x Assay Buffer ± test compound. • 6. Incubate microplate at room temperature, protected form light, for 30 min • 7. […] Excitation = 400 nm, Emission = 460 & 580 nm. Collect data for ∼ 10 min.
Data Calculation- The fluorescence intensity of wells containing 3 µM of a standard control ROMK inhibitor of the present invention is used to define the ROMK-sensitive component of thallium flux. Fluorescence in the presence of test compounds is normalized to control values to provide % fluorescence change.

| SMILES | IC50 |
| --- | --- |
| O=C1OCc2cc([C@@H]3CN4CCN(C(=O)Cc5ccc(-n6cnnn6)cn5)C[C@H]4CO3)ccc21 [Example 27, 5-[(3R,9aS)-8-{[5-(1H-tetrazol-1-yl)pyridin-2-yl]acetyl}octahydropyrazino[2,1-c][1,4]oxazin-3-yl]-2-benzofuran-1(3H)-one] | 100 nM |
| O=C1OCc2cc([C@H]3CN4CCN(C(=O)Cc5ccc(-n6cnnn6)cn5)C[C@H]4CO3)ccc21 [Example 28, 5-[(3S,9aS)-8-{[5-(1H-tetrazol-1-yl)pyridin-2-yl]acetyl}octahydropyrazino[2,1-c][1,4]oxazin-3-yl]-2-benzofuran-1(3H)-one] | 180 nM |
| Cc1nc(-n2cnnn2)ccc1CC(=O)N1CCN2C[C@@H](c3ccc4c(c3)CCOC4=O)OC[C@@H]2C1 [Example 30, 6-[(3R,9aS)-8-{[2-methyl-6-(1H-tetrazol-1-yl)pyridin-3-yl]acetyl}octahydropyrazino[2,1-c][1,4]oxazin-3-yl]-3,4-dihydro-1H-isochromen-1-one] | 160 nM |
| Cc1c([C@H]2CN3CCN(C(=O)Cc4ccc(-n5cnnn5)cn4)C[C@@H]3CO2)ccc(F)c1C#N [Example 31, 6-fluoro-2-methyl-3-[(3S,9aR)-8-{[5-(1H-tetrazol-1-yl)pyridin-2-yl]acetyl}octahydropyrazino[2,1-c][1,4]oxazin-3-yl]benzonitrile] | 160 nM |
| COc1cc([C@H]2CN3CCN(C(=O)Cc4ccc(-n5cnnn5)nc4)C[C@@H]3CO2)ccc1C#N [Example 39, 2-methoxy-4-[(3S,9aR)-8-{[6-(1H-tetrazol-1-yl)pyridin-3-yl]acetyl}octahydropyrazino[2,1-c][1,4]oxazin-3-yl]benzonitrile] | 260 nM |
| COc1cc([C@@H]2CN3CCN(C(=O)Cc4ccc(-n5cnnn5)nc4)C[C@@H]3CO2)ccc1C#N [Example 40, 2-methoxy-4-[(3R,9aR)-8-{[6-(1H-tetrazol-1-yl)pyridin-3-yl]acetyl}octahydropyrazino[2,1-c][1,4]oxazin-3-yl]benzonitrile] | 70 nM |
| COc1cc([C@@H]2CN3CCN(C(=O)Cc4ccc(-n5cnnn5)nc4)C[C@H]3CO2)ccc1C#N [Example 41, 2-methoxy-4-[(3R,9aS)-8-{[6-(1H-tetrazol-1-yl)pyridin-3-yl]acetyl}octahydropyrazino[2,1-c][1,4]oxazin-3-yl]benzonitrile] | 230 nM |
| Cc1cc(-n2cnnn2)ncc1CC(=O)N1CCN2C[C@@H](c3ccc4c(c3)CCOC4=O)OC[C@@H]2C1 [Example 44, 6-[(3R,9aS)-8-{[4-methyl-6-(1H-tetrazol-1-yl)pyridin-3-yl]acetyl}octahydropyrazino[2,1-c][1,4]oxazin-3-yl]-3,4-dihydro-1H-isochromen-1-one] | 170 nM |
| COc1cc([C@@H]2CN3CCN(C(=O)Cc4cnc(-n5cnnn5)cc4C)C[C@@H]3CO2)ccc1C#N [Example 45, 2-methoxy-4-[(3R,9aR)-8-{[4-methyl-6-(1H-tetrazol-1-vl)pvridin-3-yl]acetyl}octahydropyrazino[2,1-c][1,4]oxazin-3-yl]benzonitrile] | 250 nM |
| O=C1OCc2c1ccc([C@H]1CN3CCN(C(=O)Cc4ccc(-n5cnnn5)nc4)C[C@H]3CO1)c2Br [Example 48, 4-bromo-5-[(3S,9aS)-8-{[6-(1H-tetrazol-1-yl)pyridin-3-yl]acetyl}octahydropyrazino[2,1-c][1,4]oxazin-3-yl]-2-benzofuran-1(3H)-one] | 150 nM |
| N#Cc1c(F)ccc([C@@H]2CN3CCN(C(=O)Cc4ccc(-n5cnnn5)nc4)C[C@H]3CO2)c1Cl [Example 51, 2-chloro-6-fluoro-3-[(3R,9aS)-8-{[6-(1H-tetrazol-1-yl)pyridin-3-yl]acetyl}octahydropyrazino[2,1-c][1,4]oxazin-3-yl]benzonitrile] | 50 nM |

Same assay, conditions: Thallium Flux IC50

| SMILES | IC50 |
| --- | --- |
| Cc1c([C@H]2CN3CCN(C(=O)Cc4ccc(-n5cnnn5)nc4)C[C@@H]3CO2)ccc2c1COC2=O [Example 24, 4-methyl-5-[(3S,9aR)-8-{[6-(1H-tetrazol-1-yl)pyridin-3-yl]acetyl}octahydropyrazino[2,1-c][1,4]oxazin-3-yl]-2-benzofuran-1(3H)-one] | 160 nM |
| Cc1c([C@H]2CN3CCN(C(=O)Cc4ccc(-n5cnnn5)cn4)C[C@H]3CO2)ccc2c1COC2=O [Example 29, 4-methyl-5-[(3S,9aS)-8-{[5-(1H-tetrazol-1-yl)pyridin-2-yl]acetyl}octahydropyrazino[2,1-c][1,4]oxazin-3-yl]-2-benzofuran-1(3H)-one] | 110 nM |
| Cc1c([C@@H]2CN3CCN(C(=O)Cc4ccc(-n5cnnn5)cn4)C[C@@H]3CO2)ccc(F)c1C#N [Example 32, 6-fluoro-2-methyl-3-[(3R,9aR)-8-{[5-(1H-tetrazol-1-yl)pyridin-2-yl]acetyl}octahydropyrazino[2,1-c][1,4]oxazin-3-yl]benzonitrile] | 80 nM |
| Cc1cc(-n2cnnn2)ncc1CC(=O)N1CCN2C[C@H](c3ccc4c(c3C)COC4=O)OC[C@@H]2C1 [Example 42, 4-methyl-5-[(3S,9aS)-8-{[4-methyl-6-(1H-tetrazol-1-yl)pyridin-3-yl]acety}octahydropyrazino[2,1-c][1,4]oxazin-3-yl]-2-benzofuran-1(3H)-one] | 210 nM |
| Cc1cc(-n2cnnn2)ncc1CC(=O)N1CCN2C[C@H](c3ccc(F)c(C#N)c3C)OC[C@@H]2C1 [Example 43, 6-fluoro-2-methyl-3-[(3S,9aS)-8-{[4-methyl-6-(1H-tetrazol-1-vl)pvridin-3-yl]acetyl}octahydropyrazino[2,1-c][1,4]oxazin-3-yl]benzonitrile] | 90 nM |
| O=C1OCc2c1ccc([C@@H]1CN3CCN(C(=O)Cc4ccc(-n5cnnn5)nc4)C[C@H]3CO1)c2Cl [Example 46, 4-chloro-5-[(3R,9aS)-8-{[6-(1H-tetrazol-1-yl)pyridin-3-yl]acetyl}octahydropyrazino[2,1-c][1,4]oxazin-3-yl]-2-benzofuran-1(3H)-one] | 670 nM |
| O=C1OCc2c1ccc([C@H]1CN3CCN(C(=O)Cc4ccc(-n5cnnn5)nc4)C[C@H]3CO1)c2Cl [Example 47, 4-chloro-5-[(3S,9aS)-8-{[6-(1H-tetrazol-1-yl)pyridin-3-yl]acetyl}octahydropyrazino[2,1-c][1,4]oxazin-3-yl]-2-benzofuran-1(3H)-one] | 90 nM |
| COc1ccc([C@H]2CN3CCN(C(=O)Cc4ccc(-n5cnnn5)nc4)C[C@H]3CO2)c(C)c1C#N [Example 49, 6-methoxy-2-methyl-3-[(3S,9aS)-8-{[6-(1H-tetrazol-1-vl)pvridin-3-yl]acetyl}octahydropyrazino[2,1-c][1,4]oxazin-3-yl]benzonitrile] | 290 nM |
| N#Cc1c(F)ccc([C@H]2CN3CCN(C(=O)Cc4ccc(-n5cnnn5)cn4)C[C@H]3CO2)c1Cl [Example 52, 2-chloro-6-fluoro-3-[(3S,9aS)-8-{[5-(1H-tetrazol-1-yl)pyridin-2-yl]acetyl}octahydropyrazino[2,1-c][1,4]oxazin-3-yl]benzonitrile] | 110 nM |
